Laboratory results reported in patent US6372777B1, “Cyclic AMP-specific phosphodiesterase inhibitors” (ICOS Corporation, priority 1999, dated 2002).

Target: T1, human recombinant PDE4 (Homo sapiens, UniProt Q07343)
T1 construct: made in house; host or cells: Saccharomyces cerevisiae BJ2-54 (strain YI23 harboring HDUN2.32, if PDE4B)
Assay: Inhibition of human recombinant PDE4 (IC50)
Assay type: biochemical
Settings: not given

T1 sequence (Q07343 1-564 isoform Q07343-2): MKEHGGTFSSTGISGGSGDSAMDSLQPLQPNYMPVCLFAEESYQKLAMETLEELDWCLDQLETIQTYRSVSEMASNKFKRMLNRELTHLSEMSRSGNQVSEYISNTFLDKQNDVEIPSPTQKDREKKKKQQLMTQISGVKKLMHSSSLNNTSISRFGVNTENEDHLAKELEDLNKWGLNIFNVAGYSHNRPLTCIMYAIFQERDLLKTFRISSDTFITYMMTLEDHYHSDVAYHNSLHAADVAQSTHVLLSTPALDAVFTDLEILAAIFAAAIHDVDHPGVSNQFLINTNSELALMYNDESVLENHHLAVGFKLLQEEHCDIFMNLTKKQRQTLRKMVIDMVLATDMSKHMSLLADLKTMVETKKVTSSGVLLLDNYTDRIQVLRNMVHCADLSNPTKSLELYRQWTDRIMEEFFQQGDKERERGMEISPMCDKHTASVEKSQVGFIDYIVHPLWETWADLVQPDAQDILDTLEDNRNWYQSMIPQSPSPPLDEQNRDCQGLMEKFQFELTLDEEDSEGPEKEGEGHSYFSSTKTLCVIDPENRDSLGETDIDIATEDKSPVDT

IC50 [µM] | SMILES
8.22 | CCOC(=O)c1cc(-c2ccccc2)n(-c2cccc(N(C)C)c2)c1C [Example 1, 1-(3-Dimethylaminophenyl)-2-methyl-5-phenyl-1H-pyrrole-3-carboxylic acid ethyl ester]
0.2 | CCOC(=O)c1cc(-c2ccccc2)n(-c2cccc(Cl)c2)c1C [Example 3, 1-(3-Chlorophenyl)-2-methyl-5-phenyl-1H-pyrrole-3-carboxylic acid ethyl ester]
6.1 | CCOC(=O)c1cc(-c2ccccc2)n(-c2cccc(C)c2)c1C [Example 5, 2-Methyl-5-phenyl-l-m-tolyl-1H-pyrrole-3-carboxylic acid ethyl ester]
0.59 | CCOC(=O)c1cc(-c2ccccc2)n(-c2cccc(C(C)=O)c2)c1C [Example 8, 1-(3-Acetylphenyl)-2-methyl-5-phenyl-1H-pyrrole-3-carboxylic acid ethyl ester]
4.38 | CCOC(=O)c1cc(-c2ccccc2)n(-c2cccc(S(C)(=O)=O)c2)c1C [Example 10, 1-(3-Methanesulfonylphenyl)-2-methyl-5-phenyl-1H-pyrrole-3-carboxylic acid ethyl ester]
5.45 | CCOC(=O)c1cc(-c2ccccc2)n(-c2cccc(C(N)=O)c2)c1C [Example 11, 1-(3-Carbamoylphenyl)-2-methyl-5-phenyl-1H-pyrrole-3-carboxylic acid ethyl ester]
0.62 | CCOC(=O)c1cc(-c2ccccc2)n(-c2cccc(F)c2)c1C [Example 18, 1-(3-Fluorophenyl)-2-methyl-5-phenyl-1H-pyrrole-3-carboxylic acid ethyl ester]
1.28 | CCOC(=O)c1cc(-c2ccccc2)n(-c2cccnc2)c1C [Example 19, 2-Methyl-5-phenyl-1-pyridin-3-yl-1H-pyrrole-3-carboxylic acid ethyl ester]
0.99 | CCOC(=O)c1cc(-c2ccccc2)n(C2CCCCC2)c1C [Example 20, 1-Cyclohexyl-2-methyl-5-phenyl-1H-pyrrole-3-carboxylic acid ethyl ester]
3.07 | CCOC(=O)c1cc(-c2ccccc2)n(-c2cccc(Br)c2)c1C [Example 26, 1-(3-Bromophenyl)-2-methyl-5-phenyl-1H-pyrrole-3-carboxylic acid ethyl ester]
2.28 | CCOC(=O)c1cc(-c2ccccc2)n(-c2cccc(C(F)(F)F)c2)c1C [Example 28, 2-Methyl-5-phenyl-1-(3-trifluoro-methylphenyl)-1H-pyrrole-3-carboxylic acid ethyl ester]
1.4 | CCOC(=O)c1cc(-c2ccccc2)n(-c2ccc([N+](=O)[O-])cc2)c1C [Example 33, 2-Methyl-1-(4-nitrophenyl) -5-phenyl-1H-pyrrole-3-carboxylic acid ethyl ester]
1.65 | CCOC(=O)c1cc(-c2ccccc2)n(-c2ccccc2[N+](=O)[O-])c1C [Example 34, 2-Methyl-1-(2-nitrophenyl)-5-phenyl-1H-pyrrole-3-carboxylic acid ethyl ester]
5.74 | CCOC(=O)c1cc(-c2ccccc2)n(-c2ccc([N+](=O)[O-])cn2)c1C [Example 35, 2-Methyl-1-(5-nitropyridin-2-yl)-5-phenyl-1H-pyrrole-3-carboxylic acid ethyl ester]
1.3 | CCOC(=O)c1cc(-c2ccccc2)n(-c2ccc(N)cc2)c1C [Example 38, 1-(4-Aminophenyl)-2-methyl-5-phenyl-1H-pyrrole-3-carboxylic acid ethyl ester]
1.42 | CCOC(=O)c1cc(-c2ccccc2)n(-c2cccc(N)c2)c1C [Example 41, 1-(3-Aminophenyl)-2-methyl-5-phenyl-1H-pyrrole-3-carboxylic acid ethyl ester]

Continued, compound first:

SMILES | IC50 [µM]
CCOC(=O)c1cc(C)n(-c2cccc(Cl)c2)c1-c1ccccc1 [Example 2, 1-(3-Chlorophenyl)-5-methyl-2-phenyl-1H-pyrrole-3-carboxylic acid ethyl ester] | 5.45
CCOC(=O)c1cc(C)n(-c2cccc(C)c2)c1-c1ccccc1 [Example 4, 5-Methyl-2-phenyl-1-m-tolyl-1H-pyrrole-3-carboxylic acid ethyl ester] | 2.9
CCOC(=O)c1cc(C)n(-c2cccc(Br)c2)c1-c1ccccc1 [Example 6, 1-(3-Bromophenyl)-5-methyl-2-phenyl-1H-pyrrole-3-carboxylic acid ethyl ester] | 8.55
CCOC(=O)c1cc(C)n(-c2cccc(C(C)=O)c2)c1-c1ccccc1 [Example 7, 1-(3-Acetylphenyl)-5-methyl-2-phenyl-1H-pyrrole-3-carboxylic acid ethyl ester] | 6.83
CCOC(=O)c1cc(C)n(-c2cccc(S(C)(=O)=O)c2)c1-c1ccccc1 [Example 9, 1-(3-Methanesulfonylphenyl)-5-methyl-2-phenyl-1H-pyrrole-3-carboxylic acid ethyl ester] | 4.58
CCOC(=O)c1cc(C)n(-c2cccc(C(N)=O)c2)c1-c1ccccc1 [Example 12, 1-(3-Carbamoylphenyl)-5-methyl-2-phenyl-1H-pyrrole-3-carboxylic acid ethyl ester] | 0.22
CCOC(=O)c1cc(C)n(-c2cccc(N(C)C)c2)c1-c1ccccc1 [Example 13, 1-(3-Dimethylaminophenyl)-5-methyl-2-phenyl-1H-pyrrole-3-carboxylic acid ethyl ester] | 0.15
CCOC(=O)c1cc(C)n(-c2cccc(F)c2)c1-c1ccccc1 [Example 17, 1-(3-Fluorophenyl)-5-methyl-2-phenyl-1H-pyrrole-3-carboxylic acid ethyl ester] | 13.2
CCOC(=O)c1cc(C)n(-c2ccc([N+](=O)[O-])cn2)c1-c1ccccc1 [Example 23, 5-Methyl-1-(5-nitropyridin-2-yl)-2-phenyl-1H-pyrrole-3-carboxylic acid ethyl ester] | 133
CCOC(=O)c1cc(C)n(-c2cccc(C(=O)O)c2)c1-c1ccccc1 [Example 24, 1-(3-Carboxyphenyl)-5-methyl-2-phenyl-1H-pyrrole-3-carboxylic acid ethyl ester] | 16.5
CCOC(=O)c1cc(C)n(-c2cccc(C(F)(F)F)c2)c1-c1ccccc1 [Example 29, 5-Methyl-2-phenyl-1-(3-trifluoro-methylphenyl)-1H-pyrrole-3-carboxylic acid ethyl ester] | 6.78
CCOC(=O)c1cc(-c2ccccc2)n(Cc2cccc([N+](=O)[O-])c2)c1C [Example 30, 2-Methyl-1-(3-nitrobenzyl)-5-phenyl-1H-pyrrole-3-carboxylic acid ethyl ester] | 13.4
CCOC(=O)c1cc(C)n(Cc2cccc([N+](=O)[O-])c2)c1-c1ccccc1 [Example 31, 5-Methyl-1-(3-nitrobenzyl)-2-phenyl-1H-pyrrole-3-carboxylic acid ethyl ester] | 5.13
CCOC(=O)c1cc(C)n(-c2cccnc2)c1-c1ccccc1 [Example 32, 5-Methyl-2-phenyl-1-pyridin-3-yl-1H-pyrrole-3-carboxylic acid ethyl ester] | 13.4
CCOC(=O)c1cc(C)n(-c2ccc([N+](=O)[O-])cc2)c1-c1ccccc1 [Example 36, 5-Methyl-1-(4-nitrophenyl)-2-phenyl-1H-pyrrole-3-carboxylic acid ethyl ester] | 110
CCOC(=O)c1cc(C)n(-c2ccc(N)cc2)c1-c1ccccc1 [Example 37, 1-(4-Aminophenyl)-5-methyl-2-phenyl-1H-pyrrole-3-carboxylic acid ethyl ester] | 16
CCOC(=O)c1cc(C)n(-c2cccc([N+](=O)[O-])c2)c1-c1ccccc1 [Example 39, 1-(3-Nitrophenyl)-5-methyl-2-phenyl-1H-pyrrole-3-carboxylic acid ethyl ester] | 0.2
Cc1cc(C(=O)O)c(-c2ccccc2)n1-c1cccc([N+](=O)[O-])c1 [Example 43, 5-Methyl-1-(3-nitrophenyl)-2-phenyl-1H-pyrrole-3-carboxylic acid] | 15.6
CCOC(=O)c1cc(C)n(-c2cc(C(F)(F)F)cc(C(F)(F)F)c2)c1-c1ccccc1 [Example 45, 1-(3,5-Bis-trifluoromethylphenyl)-5-methyl-2-phenyl-1H-pyrrole-3-carboxylic acid ethyl ester] | 194
CCOC(=O)c1cccc(-n2c(C)cc(C(=O)OCC)c2-c2ccccc2)c1 [Example 46, 1-(3-Ethoxycarbonylphenyl)-5-methyl-2-phenyl-1H-pyrrole-3-carboxylic acid ethyl ester] | 8.7

System: human peripheral blood lymphocytes
Assay: Lipopolysaccharide-stimulated TNFα release from human peripheral blood lymphocytes
Assay type: cell-based
Settings: Homo sapiens, Lymphocyte; LPS-stimulated TNFα release; read-out: PBL/TNFα EC50
Method: The compounds of structural formulae (I) and (II) also were tested for an ability to reduce TNFα secretion in human peripheral blood lymphocytes. The ability to reduce TNFα secretion is related to the EC50 values (i.e., the effective concentration of the compound capable of inhibiting 50% of the total TNFα). To assess the ability of a compound to reduce TNFα secretion in human peripheral blood lymphocytes (PBL), the following tests were performed. […] Heparinized blood (approximately 30 mL) drawn from human volunteers was mixed 1:1 with Dulbecco's modified phosphate-buffered saline. This mixture was mixed 1:1 with HISTOPAQUE and centrifuged at 1,500 rpm at room temperature without braking in the swinging bucket of a Beckman model TJ6 centrifuge. Erythrocytes were centrifuged to the bottom of the tubes, and serum remained at the surface of the tubes. A layer containing lymphocytes sedimented between the serum and HISTOPAQUE® layers, and was removed by aspiration to a fresh tube. The cells were quantified and adjusted to 3×10^6 cells/mL and a 100 μL aliquot is placed into the wells of a 96 well plate. Test compounds and RPMI media (Gibco/BRL Life Sciences) are added to each of the wells 15 minutes prior to addition of bacterial LPS ([…]). The mixture was allowed to incubate for 20 hours at 37° C. in a humidified chamber. The cells then were separated by centrifuging at 800 rpm for 5 minutes at room temperature. An aliquot of 80 µL of supernatant was transferred to a new plate or determination of TNFα concentration. TNFα protein in the cell supernatant fluids was measured using a commercially available enzyme-linked immunosorbent assay (ELISA) (CYTOSCREEN® Immunoassay Kit from Biosource International). The cell-based assay provided the following results for various compounds of the present invention. The EC50 values (i.e., effective concentration of the compound capable of inhibiting 50% of the total TNFα ) illustrate the ability of the present compounds to inhibit LPS-stimulated TNFα release from human PBL.

SMILES | EC50 [µM]
CCOC(=O)c1cc(-c2ccccc2)n(-c2cccc(Cl)c2)c1C [Example 3, 1-(3-Chlorophenyl)-2-methyl-5-phenyl-1H-pyrrole-3-carboxylic acid ethyl ester] | 1.5
CCOC(=O)c1cc(C)n(-c2ccccc2)c1-c1ccccc1 [Example 21, 5-Methyl-1,2-diphenyl-1H-pyrrole-3-carboxylic acid ethyl ester] | 10
